This passage reports EC50 results from BindingDB's records for doi:10.1016/j.bmc.2019.115193 (Stanford University, 2020).

As usually defined, the EC50 is the concentration that produces a half-maximal response.

The test is described as follows: Inhibition of human DYRK1A transfected in HEK293T cells co-transfected with Renilla plasmid, pGL3-NFAT and NFATc1 assessed as derepression of NFAT-dependent luciferase activity measured after 48 hrs by luciferase assay.

Regarding `CCOC(=O)c1cnc2ccc(-c3ccnc(C)c3)nc2c1N[C@H]1CC[C@H](CN(C)C)CC1`, the EC50 came out at 1530 nM.
